Active and inactive are the calls of the source.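 Rule for the calls: active = signal decrease with fitted half-maximal dose at or below ten times the highest valid tested dose; inconclusive = poor fit, or flat fit at 30 to 70% inhibition; inactive = the rest.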
Target: Zinc finger protein mex-5 (Caenorhabditis elegans) (UniProt Q9XUB2)
Experiment: inhibitors of MEX-5 RNA binding, dose response, biochemical, fluorescence polarization, C. elegans, cherry-picked, round 3 (AID 493250)
Settings: purified MEX-5-MBP, FITC-TCR2 RNA fluorescence polarization

Chain of Zinc finger protein mex-5 (Caenorhabditis elegans) (Q9XUB2 whole entry, looked up): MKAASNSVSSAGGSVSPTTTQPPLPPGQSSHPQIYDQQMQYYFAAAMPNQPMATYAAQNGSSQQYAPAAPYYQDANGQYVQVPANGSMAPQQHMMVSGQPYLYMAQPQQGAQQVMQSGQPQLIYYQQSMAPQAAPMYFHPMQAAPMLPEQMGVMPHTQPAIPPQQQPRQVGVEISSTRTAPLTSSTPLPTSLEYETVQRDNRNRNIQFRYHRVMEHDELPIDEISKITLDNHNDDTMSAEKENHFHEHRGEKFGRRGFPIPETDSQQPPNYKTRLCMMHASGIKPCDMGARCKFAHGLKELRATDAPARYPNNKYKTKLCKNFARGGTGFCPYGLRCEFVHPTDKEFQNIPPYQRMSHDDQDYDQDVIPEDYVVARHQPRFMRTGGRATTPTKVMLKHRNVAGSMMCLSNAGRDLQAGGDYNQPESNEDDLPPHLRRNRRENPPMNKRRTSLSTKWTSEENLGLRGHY

SMILES | AC50
COc1ccc(NS(=O)(=O)c2cccc(C(=O)NNC(=O)c3cc(S(N)(=O)=O)ccc3OC)c2)cc1 | > 10 µM (inactive)
Cc1ccc2c(c1)c1nc3ccccc3nc1n2C | 6.78 µM
N=C1CCC(=N)c2c1c(O)c1ccccc1c2O | 6.52 µM
CCN(CC)Cc1c(O)ccc2c1O/C(=C\C=C\c1ccccc1)C2=O | 4.38 µM
Cc1ccc(C(=O)O)cc1-c1ccc(/C=C2\SC(=O)N(CC(=O)Nc3ccccc3)C2=O)o1 | 2.74 µM
CCS(=O)(=O)C1=NN2C(=N)/C(=C\c3ccc(SCc4ccco4)o3)C(=O)N=C2S1 | 10.4 µM
CCOC(=O)C1C(=O)C=C(/C=C/c2ccc(N(C)C)cc2)CC1c1ccccc1 (stereo not drawn) | 7.41 µM

Same assay, conditions: purified MEX-5-MBP, FITC-TCR2 RNA fluorescence polarization; at 10 µM (top of the series)

SMILES | activity change, negative = inhibition
CS(=O)(=O)c1nsc2nc(=O)c(/C=C3\C=Nc4ccccc43)c(N)n12 | inactive
COc1cc(/C=C/c2nc(-c3ccccc3O)n[nH]2)cc(OC)c1OC | inactive
CC(C)=CCc1c(O)cc(O)c2c(=O)c(O[C@@H]3O[C@@H](C)[C@H](O)[C@@H](O)[C@H]3O)c(-c3ccc(O)cc3)oc12 | inactive
Nc1c(NCc2ccccc2)c(=O)[nH]c(=O)n1Cc1ccccc1 | inactive
CN1CN(C)c2ccc([N+](=O)[O-])c3cccc1c23 | inactive
O=C(N/N=C/c1cccnc1)c1ccccc1 | inactive
COc1ccccc1N1C(=O)C2C(C(=O)c3ccccc3)=NN(c3ccccc3OC)C2C1=O (stereo not drawn) | inactive
CCOc1ccc2nc(N=Nc3c(O)[nH]c(=O)[nH]c3=O)sc2c1 | inactive
N#Cc1cc2c(=O)n3ccccc3nc2n(CCCN2CCOCC2)c1=O | inactive
NC(=O)C(=O)N/N=C/c1c2ccccc2cc2ccccc12 | inactive
CCS(=O)(=O)c1ccc2oc(=O)c(/C=C(\O)c3ccc(Cl)cc3)nc2c1 | inactive
COc1ccccc1C(=O)NNC(=O)c1csc(N2CCOCC2)n1 | inactive
COc1nc(N/N=C/c2ccc(-c3ccccc3[N+](=O)[O-])o2)nc(N2CCOCC2)n1 | inactive
CCOC(=O)C1Cc2ccccc2C(=O)O1 (stereo not drawn) | inactive
COC(=O)c1cccc(-c2ccc(C(c3c(C)[nH][nH]c3=O)c3c(C)[nH][nH]c3=O)o2)c1 | inactive
CC1=CC2=NC(=O)/C(=C\c3ccc(-c4cccc(Cl)c4)o3)C(=N)N2O1 | inactive
CCOc1ccc(/C=N/n2c(C)nc3ccccc3c2=O)cc1 | inactive
CSc1ccccc1N=Cc1nc(-c2ccccc2)oc1O | inactive
Oc1ccc(C2C=C(c3ccc(F)cc3)Nc3ncnn32)cc1 (stereo not drawn) | inactive
CSCCCN1CCC(n2nccc2NC(=O)CCCc2ccccc2)CC1 | inactive
CCCCN(C(=O)c1ccc([N+](=O)[O-])o1)c1c(N)n(CCCC)c(=O)[nH]c1=O | inactive
COc1ccc(N=Nc2c(C)[nH][nH]c2=O)cc1 | inactive
O=c1[nH]cnc2c1C(c1ccccc1[N+](=O)[O-])c1c(nc[nH]c1=O)O2 | inactive
CCCOc1ccc(C2=CSC3=NCCN23)cc1[N+](=O)[O-] | inactive
O=C(NC1CCSc2ccccc21)c1cccc(Br)c1 (stereo not drawn) | inactive
Cc1c(C#N)c(O)[nH]c(=O)c1N=Nc1ccc(S(N)(=O)=O)cc1 | inactive

SMILES | activity change, negative = inhibition
Cc1ccc(Nc2nc(-c3ccc(O)cc3O)cs2)nc1 | inactive
N#CCCn1c2ccccc2c2nc3ccccc3nc21 | inactive
C=CCn1c(O)c(N=NC(=S)Nc2cccc(C)c2)c2ccccc21 | inactive
CC1(N2CCOCC2)CC2(O)C(=[N+]1[O-])CCc1c2no[n+]1[O-] (stereo not drawn) | inactive
CN(N)N=Nc1nc2c([nH]1)c(=O)n(C)c(=O)n2C | inactive
N#C/C(=N\Nc1cccc(C(F)(F)F)c1)C(=O)c1ccsc1 | inactive
O=C(O)c1ccc(/C=C2\SC(=S)N(Nc3ccccc3)C2=O)cc1 | inactive
CCCNc1nc2ccccc2n2c(C)nnc12 | inactive
Cc1cc(C)c[n+](-c2[nH]c(=O)sc2/C=N/N=C(\N)[S-])c1 | inactive
CCOc1ccc(N2C(=O)C(Cl)=C(Nc3ccccc3O)C2=O)cc1 | inactive
O=c1[nH]nc(CNc2ccc(Cl)cc2Cl)c2ccccc12 | inactive
CN1C(=O)N(C)C(c2cccc([N+](=O)[O-])c2)C2=C1CCCC2=O (stereo not drawn) | inactive
CC(=O)CSc1ncnc2nc[nH]c12 | inactive
CN1/C(=C\C=C(/C#N)C(=O)Nc2ccccc2F)C(C)(C)c2ccccc21 | inactive
Cc1ccc(NC(=O)CCC(=O)NNC(=S)Nc2ccc(F)cc2)c(C)c1 | inactive
O=[N+]([O-])c1ccc(C2=CSC3=NCCN23)cc1 | inactive
CC[N+](C)(CC)CCCOC(=O)C(O)(c1ccccc1)C1CCCCC1 (stereo not drawn) | inactive
COc1ccccc1NCc1cc(=O)oc2c(C)c(O)ccc12 | inactive
CCNC(=S)NNC(=O)c1ccccn1 | inactive
CCc1ccc(/C=C2\Oc3cc(OS(C)(=O)=O)ccc3C2=O)cc1 | inactive
COc1ccc(CCn2c(=N)c(C(=O)NCC3CCCO3)cc3c(=O)n4ccccc4nc32)cc1 (stereo not drawn) | inactive
O=C(O)CCC(=O)NNc1ncnc2ccccc12 | inactive
Cc1ccc(O)c(-c2cc(C(=O)Nc3ccc(S(=O)(=O)Nc4nc(C)cc(C)n4)cc3)[nH]n2)c1 | inactive
Oc1cccc(NC(=S)N=Nc2c(O)[nH]c3ccc(Br)cc23)c1 | inactive
COc1ccc(/C=N/Nc2nc(=O)[nH]nc2C)cc1[N+](=O)[O-] | inactive
CC1=NN(C(N)=S)C(=O)C1N=Nc1cccc(Cl)c1C (stereo not drawn) | inactive

SMILES | activity change, negative = inhibition
Oc1ccc(/C=N/N2CCOCC2)c(O)c1O | inactive
COc1cc(OC)c2ccc(=O)oc2c1C(CC(=O)N1CCCC1)c1ccc(N(C)C)cc1 (stereo not drawn) | inactive
NC(=S)N=Nc1c(O)[nH]c2ccccc12 | inactive
CC(=O)Nc1ccc(-c2csc(Nc3cccc(C)n3)n2)cc1 | inactive
N#CC1=C(N)Oc2c(O)cc3ccccc3c2C1c1ccsc1 (stereo not drawn) | inactive
O=C(O)c1ccc(NC2=C(Cl)C(=O)c3ccccc3C2=O)cc1 | inactive
Cc1ccc(N2C(=O)c3ccc(C(=O)O)cc3C2=O)cc1C | inactive
COc1ccc2c(c1)NC(c1ccc(N(C)C)cc1)c1cccn1-2 (stereo not drawn) | inactive
Cn1c(O)c(C2=c3ccccc3=NC2=O)[nH]c1=S | inactive
COc1ccc(CC(=O)NNc2ncnc3c2cnn3C)cc1OC | inactive
COc1cc(/C=C2/C(C)=C(C#N)c3nc(N)c(C#N)c(C)c32)ccc1OCC(=O)O | inactive
Cc1c(Cl)cccc1NC(=O)C(=O)NNS(=O)(=O)c1ccc(F)cc1 | inactive
CC(=O)Nc1ccc2c(c1)C(=O)N(c1cccc(C)c1)C2=O | inactive
O=c1cc(-c2ccccc2)oc2ccc(O)cc12 | inactive
COc1ccc(OC)c(Nc2nc(-c3ccc(O)c(O)c3)cs2)c1 | inactive
N[C@@H](Cc1ccccc1)C(=O)N1CCC(C(=O)NCC(=O)Nc2ccc(F)cc2)CC1 | inactive
O=c1[nH]c2ccccc2n1Cc1ccc(Cl)cc1 | inactive
COc1cccc(/C=N/NC(=O)N/N=C/c2cccc(OC)c2O)c1O | inactive
CCOc1cc(/C=N/NC(=O)N/N=C/c2ccc(O)c(OCC)c2)ccc1O | inactive
CCCn1c(=N)c(C(=O)NC2CCCC2)cc2c(=O)n3cccc(C)c3nc21 | inactive
COc1cc(/C=N/NC(=S)Nc2cccc(C(=O)O)c2)ccc1O | inactive
Cc1cc(/C=C2\C(=O)NC(=O)N(c3cccc(F)c3)C2=O)c(C)n1-c1cc(C(=O)O)cc(C(=O)O)c1 | inactive
CC(=O)Nc1ccc(N=NC2C(=O)N(C(N)=S)N=C2C)cc1 (stereo not drawn) | inactive
Nc1nonc1C(=O)N/N=C/c1cc(Br)ccc1O | inactive

— PubChem BioAssay AID493250 (Broad Institute, 2011)
